Paper PMC3038857, “Using Nuclear Receptor Activity to Stratify Hepatocarcinogens” (PLoS ONE, 2011)

Legend:
[1] = molecular target: T1, PPARG (peroxisome proliferator-activated receptor gamma) (Homo sapiens, UniProt P37231); assay: ATG_PPARg_TRANS: Factorial reporter gene assay (HepG2); type: cell-based; conditions: HepG2; scale not given, looks like -log10 of molar active concentration; 0 = no activity
T1 construct: expressed in transfected cells; host or cells: HepG2
T1 sequence (P37231 1-505): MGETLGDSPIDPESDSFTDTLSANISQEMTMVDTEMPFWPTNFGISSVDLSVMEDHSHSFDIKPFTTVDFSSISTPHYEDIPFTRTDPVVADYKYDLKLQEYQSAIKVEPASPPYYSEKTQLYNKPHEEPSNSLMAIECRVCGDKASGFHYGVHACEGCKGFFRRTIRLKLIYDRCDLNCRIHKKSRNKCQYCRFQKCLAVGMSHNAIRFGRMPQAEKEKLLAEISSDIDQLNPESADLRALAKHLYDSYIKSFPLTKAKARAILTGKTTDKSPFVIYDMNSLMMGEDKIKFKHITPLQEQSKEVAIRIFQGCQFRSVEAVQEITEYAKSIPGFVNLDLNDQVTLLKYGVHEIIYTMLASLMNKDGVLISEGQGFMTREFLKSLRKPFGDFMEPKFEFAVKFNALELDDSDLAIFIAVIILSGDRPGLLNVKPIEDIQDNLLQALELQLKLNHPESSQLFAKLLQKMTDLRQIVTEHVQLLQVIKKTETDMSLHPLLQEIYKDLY
Outline: (§1)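 HepG2 cells transfected with multiplexed reporter libraries: cis-acting binding-site reporters (CIS) and a one-hybrid nuclear-receptor trans system (TRANS). Chemicals tested at seven concentrations, starting at the maximum tolerated concentration with three-fold serial dilutions.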

PPARa (PPARA) = molecular target: T2, PPARa (PPARA) (Homo sapiens, UniProt Q07869); assay: NCGC_PPARa_Agonist: GAL4 BLAM Reporter gene assay: PPARa; type: cell-based; set-up: expressed in transfected cells; host or cells: HEK293; conditions: agonist mode; scale not given, looks like -log10 of molar active concentration; 0 = no activity
T2 sequence (Q07869 1-468): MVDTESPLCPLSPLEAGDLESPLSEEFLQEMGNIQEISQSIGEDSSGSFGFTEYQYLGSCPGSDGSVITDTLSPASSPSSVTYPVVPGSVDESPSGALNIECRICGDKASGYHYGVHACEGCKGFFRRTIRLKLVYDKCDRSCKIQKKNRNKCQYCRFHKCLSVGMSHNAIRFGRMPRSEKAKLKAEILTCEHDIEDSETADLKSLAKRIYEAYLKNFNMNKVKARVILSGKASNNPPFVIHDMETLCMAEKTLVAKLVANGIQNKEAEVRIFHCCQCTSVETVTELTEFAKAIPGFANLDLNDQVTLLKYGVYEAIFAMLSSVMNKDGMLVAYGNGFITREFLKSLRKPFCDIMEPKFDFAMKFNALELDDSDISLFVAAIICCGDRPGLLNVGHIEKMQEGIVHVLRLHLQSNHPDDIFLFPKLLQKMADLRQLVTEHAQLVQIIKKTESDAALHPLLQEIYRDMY
Method: These assays measure binding constants and enzyme inhibition values for nuclear receptors. The targets include [drawing 67] , [drawing 68] , [drawing 69] , [drawing 70] , [drawing 71] , [drawing 72] , [drawing 73] , [drawing 74] , [drawing 75] and [drawing 76] . Each of the nuclear receptor targets was measured in agonist mode. Assays were run at the NIH Chemical Genomics Center (Rockville, MD).
Cell-based HTS Assays: These assays measuring binding constants and enzyme inhibition values for nuclear receptors. The targets include AR, ER, FXR, LXR, PPARα, PPARδ, PPARγ, RXRα, RXRβ and PXR. Each of the nuclear receptor targets was measured in both agonist and antagonist mode, but the antagonist data is still undergoing analysis due to possible interference between cytotoxicity and assay activity, so antagonist mode data were not used in the present analysis. Assays were run at the NIH Chemical Genomics Center (Rockville, MD) as part of the Tox21 collaboration. […] The R^2 was required to be ≥0.5. Values where only the highest concentration exceeded 50% activity were excluded to eliminate weak or false positives. Detailed description of the methods, data and analysis methods for this dataset will be presented in a separate publication.

PXR (NR1I2) = molecular target: T3, PXR (NR1I2) (Homo sapiens, UniProt O75469); assay: ATG_PXRE_CIS: Factorial reporter gene assay (HepG2); type: cell-based; set-up: endogenous in cells; host or cells: HepG2; conditions: HepG2; scale not given, looks like -log10 of molar active concentration; 0 = no activity
T3 sequence (O75469 1-434): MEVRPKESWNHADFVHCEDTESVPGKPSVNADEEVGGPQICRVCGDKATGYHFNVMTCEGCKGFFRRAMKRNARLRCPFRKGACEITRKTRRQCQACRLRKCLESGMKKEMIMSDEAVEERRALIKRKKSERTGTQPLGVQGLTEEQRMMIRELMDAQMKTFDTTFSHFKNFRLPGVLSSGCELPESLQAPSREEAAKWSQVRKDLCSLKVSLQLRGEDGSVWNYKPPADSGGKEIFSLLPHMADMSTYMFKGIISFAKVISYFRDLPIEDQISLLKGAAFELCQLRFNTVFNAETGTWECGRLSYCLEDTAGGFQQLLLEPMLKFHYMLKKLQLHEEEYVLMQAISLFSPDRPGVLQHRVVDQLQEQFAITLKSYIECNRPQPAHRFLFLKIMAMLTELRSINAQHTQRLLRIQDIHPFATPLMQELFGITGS
Outline: as §1

PPARg (PPARG) = molecular target: T4, PPARg (PPARG) (Homo sapiens, UniProt P37231); assay: NVS_NR_hPPARg: Human PPARg Fluorescent Ligand (cell-free HTS); type: binding; conditions: scale not given, looks like -log10 of molar active concentration, 0 = no activity
T4 sequence (P37231 1-505): T1 sequence (P37231 1-505)
Description: These are a collection of biochemical assays measuring binding constants and enzyme inhibition values. Chemicals were initially screened at a single concentration in duplicate wells at a concentration of 10 [drawing 63] M for cytochrome P-450 assays and 25 [drawing 64] M for all others. […] These assays were run by Caliper Life Sciences (Hanover, MD) under contract to EPA. Short assay descriptions are available at: http://www.caliperls.com/products/contract-research/in-vitro/.
Cell-free HTS Assays: A collection of biochemical assays measuring binding constants and enzyme inhibition values. […] These assays were run by Caliper Life Sciences (Hanover, MD) under contract to EPA. Short assay descriptions are available at http://www.caliperls.com/products/contract-research/in-vitro/. Values for all endpoints were imported into GeneData Screener (Basel, Switzerland) and normalised to solvent controls from the same plate as the tested compounds and expressed as percent of neutral control. Concentration-response curves were fit in GeneData Screener (Basel, Switzerland) Condeseo module using the Hill equation and AC50 values were determined. […] Detailed description of the methods, data and analysis methods for this dataset are described in a separate publication.

Structure (SMILES) | ATG_PPARg_TRANS [1] | NCGC_PPARa_Agonist (PPARa (PPARA)) | ATG_PXRE_CIS (PXR (NR1I2)) | NVS_NR_hPPARg (PPARg (PPARG))
O=C(Nc1ccccc1-c1ccc(Cl)cc1)c1cccnc1Cl [r42] | 4.62 | 0 | 5 | 0
OB(O)O [r41] | 0 | 0 | 4.229 | 0
